# Data from PMC12067128, “Macrocyclization: Enhancing Drug-like Properties of Discoidin Domain Receptor Kinase Inhibitors” (ACS Medicinal Chemistry Letters, 2025).
# Legend:
# [1] = Microsomes stability (clearance in human microsomes); format: in vitro ADME; settings: liver microsomes, pH 7.4, 0.8 mg protein/mL, 1 mM NADPH, 37 °C, read-out: CLint h mic (clearance in human microsomes)
# Experimental: values in Caco-2 assay were: <10 nm/s = low level; 10-50 nm/s = medium level; >50 nm/s = high […]
# Test compounds were incubated, in duplicate, at the concentration of 1 μM with liver microsomes (0.8 mg protein/mL) in Dulbecco’s buffer (pH 7.4) at 37 °C in the presence of 1 mM NADPH. At different time points (0, 5, 10, 20, 30, and 60 min), 50 μL aliquots of the incubates were taken, added with 80 μL of ice-cold acetonitrile, and 20 μL of 1 μM warfarin in acetonitrile (injection check) to stop the reaction, and samples were centrifuged. The supernatants were analyzed by LC−MS/MS for unchanged compounds. Test compounds were incubated with liver microsomes in Dulbecco’s buffer in the absence of NADPH for 0 and 60 min, as control. Midazolam at the concentration of 1 μM, was incubated with microsomes as positive control for phase I activity of microsomes. Control samples were processed as test compound samples.
# [2] = log k'80 PLRP-S chromatographic descriptor; format: physicochemical; settings: surrogate of log Dtol
# From the text: (§1) Lipophilicity has been obtained in four different systems. BRlogD and ChromlogD are chromatographic surrogates of log Doct and, despite showing different values, are linearly correlated (Figure S4). Log k′ 80 PLRP-S is a surrogate of log Dtol. Log kw ^IAM mimics the interaction between the compounds and the phospholipids of membranes. The combination of the experimental lipophilicity descriptors is essential to evaluate lipophilicity in different regions of the membrane bilayer. This complete lipophilicity profile may give an idea of the permeability potential of poorly soluble compounds for which standard permeability measurements are unreliable. […] This is supported by its low IC50 value in the cell-based assay.
# Kinetic solubility = format: physicochemical
# Experimental: Using a stock solution of test compound in 100% DMSO, duplicate dilutions were prepared at a nominal concentration of 200 µM in 0.1 M phosphate buffered saline (PBS) at pH 7.4, with a 2% final DMSO content. Test compound calibration standards were prepared at 200 µM and 10 µM in 100%
# DMSO. The PBS and DMSO dilutions were equilibrated on a shaking platform at room temperature for two hours prior to filtration using a Multiscreen HTS solubility filter plate (Millipore). Filtrates were analysed by LC-UV-MS and the concentration of compound in PBS filtrate determined by comparing the UV absorbance peak with that of the two DMSO calibration standards. Mass spectrometry will be used to confirm the presence of the expected molecular ion in the UV peak measured. The effective range of the assay is 5 – 200 µM. […]
# [3] = Chamelogk chameleonicity descriptor; format: physicochemical; settings: >0.6 = chameleons, <0.6 = non-chameleons
# Experimental: Finally, chameleonicity was measured with the recently described Chamelogk method (Table ), where 0.6 is the threshold value to distinguish chameleons from non-chameleons.
# [4] = Δlog kW IAM polarity descriptor; format: physicochemical; settings: polarity in aqueous medium
# Experimental: (§2) Polarity is quantified by two descriptors: EPSA and Δlog kw ^IAM. The first is measured in an almost fully nonpolar environment, and the second describes polarity in an aqueous medium. […] This is also in line with the higher solubility of KIMCs over 1.
# DDR1 = target: T1, DDR1 (Homo sapiens, UniProt Q08345); assay: PathHunter U2OS DDR1 Functional Assay (DDR1 cellular assay); format: cell-based; settings: U2OS PathHunter cells, collagen II stimulation; read-out: Cell DDR1 IC50
# T1 construct: ProLink™ (PK) tagged full-length DDR1b; host or cells: U2OS human osteosarcoma cells (PathHunter U2OS DDR1)
# T1 sequence (Q08345 19-913): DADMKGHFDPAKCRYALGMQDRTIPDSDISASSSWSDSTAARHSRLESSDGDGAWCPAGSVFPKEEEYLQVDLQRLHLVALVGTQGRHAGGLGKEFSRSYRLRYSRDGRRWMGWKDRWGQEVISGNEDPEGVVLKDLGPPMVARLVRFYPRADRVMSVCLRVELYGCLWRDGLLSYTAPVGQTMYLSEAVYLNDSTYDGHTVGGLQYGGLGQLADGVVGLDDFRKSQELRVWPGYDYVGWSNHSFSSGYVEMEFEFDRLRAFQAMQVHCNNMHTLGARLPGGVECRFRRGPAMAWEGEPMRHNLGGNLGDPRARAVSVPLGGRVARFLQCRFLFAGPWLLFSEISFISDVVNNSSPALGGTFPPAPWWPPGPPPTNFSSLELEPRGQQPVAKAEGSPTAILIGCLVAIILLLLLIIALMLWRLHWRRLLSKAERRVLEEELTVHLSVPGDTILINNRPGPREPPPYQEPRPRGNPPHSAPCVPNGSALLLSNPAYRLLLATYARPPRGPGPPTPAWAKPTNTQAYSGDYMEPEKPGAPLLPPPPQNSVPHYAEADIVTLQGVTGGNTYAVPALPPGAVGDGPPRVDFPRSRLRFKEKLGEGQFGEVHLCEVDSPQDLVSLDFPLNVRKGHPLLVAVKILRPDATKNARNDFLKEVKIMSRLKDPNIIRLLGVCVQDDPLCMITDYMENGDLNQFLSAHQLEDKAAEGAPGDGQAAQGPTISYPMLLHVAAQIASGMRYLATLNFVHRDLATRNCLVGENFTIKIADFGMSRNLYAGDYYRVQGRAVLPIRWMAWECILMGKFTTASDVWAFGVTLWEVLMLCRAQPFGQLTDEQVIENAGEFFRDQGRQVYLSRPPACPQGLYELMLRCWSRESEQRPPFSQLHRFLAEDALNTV
# Experimental: page 17: In vitro Biology DDR1 cellular assay The activity of Discoidin Domain-containing Receptor protein kinase (DDR) inhibitors was determined using the PathHunter® U2OS DDR1 Functional Assay which employs Enzyme Fragment Complementation (EFC) technology, where the β-galactosidase (β-gal) enzyme is split into two fragments, ProLink (PK) and Enzyme Acceptor (EA). Independently these fragments […] β-gal enzyme. In the PathHunter® U2OS DDR1 Functional Assay, the U2OS human osteosarcoma cell line is modified to co-express a ProLinkTM (PK) tagged full-length DDR1b and an Enzyme Acceptor (EA) tagged SH2 domain. Collagen II, as a ligand, induces activation of DDR1b which results in cross-phosphorylation. The SH2-EA fusion protein then specifically binds the phosphorylated receptor resulting in complementation of the two fragments of β-gal and formation of a functional enzyme. β-gal activity is then quantitatively detected using a chemiluminescent substrate. PathHunter® Human U2OS DDR1 cells were prepared in AssayCompleteTM Cell Plating 16 Reagent (DiscoverX 93-0563R16A) and plated at 5000 cells/well in a 384-well white, clear-bottom, sterile plate (ThermoFisher 142762) and incubated for 90 minutes at 37 °C, 5% CO2. Test compounds were serially diluted from a top concentration of 10 mM (1000x final assay concentration) directly in a 384-well low-volume polypropylene plate (Greiner bio-one 784201) using an Echo 555 acoustic liquid handler (Labcyte). Test compounds were diluted in AssayCompleteTM Cell Plating 16 Reagent then added to cells using an Integra ViaFlow384 electronic reagent dispenser and pre-incubated at 37 °C, 5% CO2 for 30 minutes. Following compound pre-incubation, the cells were stimulated with 20 μg/ml Bovine Type II Collagen (DiscoverX 92-1090) with incubation for 20 hours at 37 °C, 5% CO2. Next, PathHunter Detection Reagent (DiscoverX 93-[…]) was added to the cells, incubated for 60 minutes at 25 °C in the dark, prior to capturing the chemiluminescent signal on a PHERAstar (BMG LABTECH). The percentage of inhibition was calculated for each concentration of compound using a 0.1% DMSO vehicle/Collagen II control response as a 0% inhibition and a 10 nM Dasatinib/Collagen II positive 17 page 18: control response as a 100% inhibition. The final assay concentration of the top of the test compound CRC was 10 μM. 18
# [5] = ChromLogD chromatographic lipophilicity; format: physicochemical; settings: C18 column, pH 7.4
# Experimental: The chromatographic method was based on the differential retention times of test compounds on a C18 column (Luna C18(2), 30 x 2mm, […], 100 Å) under controlled liquid chromatography conditions, comparing retention times with those of standards (Benzyl Alcohol, p-Nitrophenol, Bromobenzene, Anthracene) with known log D values. Stock solutions (10 mM in DMSO) of test compounds were diluted to a final concentration of 1 mM. The mobile phases consisted of A (20mM Ammonium Acetate buffered to pH 7.4 with ammonia hydroxide) and B (ACN). The LC gradient profile was the following: a linear increase to 90% B during 0.0 to 1.3 min, hold at 90 % B during 1.3 to 1.53 min then back to 0.0% B from 1.53 to 1.60 min, hold at 0% B until the end of the run (2.00 min). 1 μL of the sample volume was injected, using a flow rate of 0.5 mL/min and a column temperature of 40°C. All compounds were detected by UPLC/MS analysis using a a Waters ACQUITY UPLC equipped with a Photo Diode Array (PDA) detector coupled with a Waters ACQUITY QDa single quadrupole mass spectrometer with an Electrospray ionization (ESI) source.
# The retention times were obtained by processing data in Waters Openlynx. The standards are then plotted in excel and the best fit line was used as the basis for calculating the unknown LogD values from the retention times of the peaks obtained.
# [6] = log kW IAM (immobilized artificial membrane chromatography); format: physicochemical; settings: lipophilicity descriptor, phospholipid interaction
# From the text: as §1
# [7] = BRlogD chromatographic lipophilicity; format: physicochemical; settings: XBridge Shield RP18, pH 7.0, 60% acetonitrile
# Experimental: The original method was described in a previous paper.e Briefly, a HPLC Thermo Fisher Scientific Dionex Ultimate 3000 instrument equipped with a Low-Pressure Mixing Gradient Pump LPG-3400 SD, ACC-3000 autosampler with termostatable column compartment, a DAD-3000 RS Detector and Chromeleon Data System Version 7.2.10 was used. Deionized water and HPLC grade acetonitrile were used throughout. The mobile phases consisted of 20 mM ammonium acetate at pH 7.0 and acetonitrile 60% v/v. Samples were dissolved in a 1:1 mixture of buffer/acetonitrile in the concentration range of 50–100 ug/mL. A 10uL volume of each solution was injected at 30°C and flow rate was 1 mL/min. The dead time, t0, was determined by monitoring the baseline disturbance.
# retention time (tR) was measured on a XBridgeTM Shield RP18 (Waters, 5cm x 4.6 mm, 5 µm particle size, 130Å pore size). Isocratic log k’ (capacity factor k’ = (tR - t0)/t0) values were measured. The relationship between log D and log k’60 has been determined previously and is reported below (Eq.
# We termed this log D as BRlogD.
# EPSA polarity descriptor = format: physicochemical; settings: almost fully nonpolar environment; polarity in nonpolar environment
# Experimental: as §2
smiles,measurement,setting,value
Cc1ccc(C(=O)Nc2cccc(C(F)(F)F)c2)cc1-c1cc2nc(Nc3cnn(C)c3)ncc2[nH]1 [Compound 1],"microsomal CLint at 1 h, 1 µM",[1],19 ± 2.1 µL/min/mg
same,logk'80 PLRP-S,[2],-0.3
same,kinetic solubility (in words),Kinetic solubility,almost insoluble
same,solubility kinetic at 2 h,"Kinetic solubility; phosphate buffered saline, PBS pH 7.4, 2% DMSO, 2 h room temperature, assay range 5-200 µM, read-out: KS (kinetic solubility)",< 5 µM
same,Chamelogk,[3],0.99
same,Δlog kW^IAM,[4],0.47
same,IC50,DDR1,3 nM
same,chromatographic logD,[5],2.92
same,log kW^IAM,[6],2.53
same,BRlogD,[7],3.36
same,EPSA,EPSA polarity descriptor,106 A^2
